According to PubChem BioAssay (NCI):
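Tested at 5 concentrations; 48 h exposure; 96-well plates; endpoints linearly interpolated, else capped at highest concentration. Definition used: TGI = concentration required for complete inhibition of growth.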 Where a SMILES comes first, the peptide text is derived from it. The star is where a group is joined. OSu = O=C1CCC(=O)N1O*

How the values were obtained:
Test in all cases: NCI tumour cell line growth inhibition, 48 h
[1] = system: NCI-H522 lung
[2] = system: MDA-MB-231 breast
[3] = system: SN12C renal
[4] = system: M14 melanoma
[5] = system: SNB-75 CNS
[6] = system: UACC-257 melanoma
[7] = system: LOX IMVI melanoma
[8] = system: OVCAR-5 ovarian
[9] = system: 786-0 renal
[10] = system: HOP-92 NSCLC

Compound	TGI [1] [µM]	TGI [2] [µM]	TGI [3] [µM]	TGI [4] [µM]	TGI [5] [µM]	TGI [6] [µM]	TGI [7] [µM]	TGI [8] [µM]	TGI [9] [µM]	TGI [10] [µM]
CCOC1CCN(C(=O)c2ccccc2)O1 (centres undefined)	> 10	> 10	> 10	> 10	> 10	> 10	> 10	> 10	> 10	
O=C(NC1(C(=O)O)CCCC1)c1ccccc1	> 100	> 100	> 100	> 100		> 100	> 100	> 100	> 100	> 100
C[C@H]1O[C@@H](C(C)(C)C)OC(=O)[C@@H]1C(OC(=O)c1ccccc1)c1cccc2ccccc12 (some centres undefined)	> 100	> 100	> 100	> 100	> 100	> 100	> 100	> 100	> 100	
Cc1cc(N(CCC#N)CCC#N)ccc1/C(N=Nc1ccc([N+](=O)[O-])cc1)=N\NC(=O)c1ccccc1	44.7	> 100	> 100	> 100	> 100	> 100		> 100	> 100	
Cc1cc(C)nc(NS(=O)(=O)c2ccc(NC(=O)c3cc([N+](=O)[O-])cc([N+](=O)[O-])c3)cc2)n1		> 100	> 100	> 100	> 100	> 100	> 100		> 100	> 100
C/C(O)=C(\C=NC(=S)c1ccncc1)C(=O)Nc1ccccc1C		> 100	> 100	> 100	> 100	> 100	> 100	> 100	> 100	> 100
CC(=O)n1nc(-c2ccc3ccccc3c2)nc1C	> 100	> 100	> 100	> 100	> 100	> 100	> 100	> 100	> 100	
C=C(C)C(=O)OC1C[C@H](COC(C)=O)C2CC=C(CO)C2C2OC(=O)C(=C)[C@H]12 (some centres undefined)	33.8	> 100		31	> 100	> 100	> 100	> 100	97.1	
C=CCn1c(-c2ccc(Cl)cc2)csc1=Nc1ccccc1OC		> 100	> 100	> 87.9	> 94.3	29.7	> 100	> 100	> 100	> 100
C=CCCC(=O)C(=[N+]=[N-])C(=O)CCC(=O)c1ccccc1		> 10	> 10	> 10	> 10	> 10	> 10	> 10	> 10	> 10
COCOc1cc(OC)ccc1C/C(=N/O)C(=O)OC	> 100	> 100	> 100	> 100	74.4	> 100	> 100	> 100	> 100	
COc1ccc(CCN2C(=O)CC34C=CC(CC3C2=O)O4)cc1OC (centres undefined)		> 100	> 100	> 100		> 100	> 100	> 100	> 100	> 100
CC(=O)O[C@H]1C(=O)[C@@]2(C)[C@H]([C@H](OC(=O)c3ccccc3)[C@]3(O)C[C@H](OC(=O)[C@H](O)[C@@H](NC(=O)c4ccc(N(C)C)cc4)c4ccccc4)C(C)=C1C3(C)C)[C@]1(OC(C)=O)CO[C@@H]1C[C@@H]2O		> 50	> 50	> 50	> 50		> 50	> 50	> 50	> 50
O=[N+]([O-])C(C(Cl)=C(Cl)Cl)=C(n1cncn1)n1cncn1	28.7	39.3	26.9	> 74.8	> 65.3	> 65.7	44.9	22.9	45.4	
NCCCCC(NC(=O)C(N)Cc1ccc(O)cc1)C(=O)NC(Cc1ccc(O)cc1)C(=O)NC(CCCCN)C(=O)ON1C(=O)CCC1=O (centres undefined) (H-YKYK-OSu; configuration not given here)		> 100	> 100	> 100	> 100	> 100		> 100	> 100	> 100
CC(=O)c1c(O)n(-c2ccc(C)cc2)c(=O)c2c(N)n[nH]c12	> 100	> 100	> 100	> 100	> 100	> 100	> 100	> 100	> 100	
COC(=O)C1(O)C(c2ccccc2)NC2(C)CCCC21 (centres undefined)	> 100	> 100	> 100	> 100	> 100	> 100	> 100		> 100	
O=c1[nH]nc(-c2ccc(F)cc2)cc1-c1ccccc1		> 100	> 100	> 100		> 100	> 100	> 100	> 100	> 100
